Data as given in patent publication US9738600B2, “ROR gamma (RORγ) modulators” (LEAD PHARMA CEL MODELS IP B.V., priority 2013, dated 2017).

Columns and labels:
[1] = system: IL-17A production in anti-CD3/anti-CD28 stimulated peripheral blood mononuclear cells (PBMCs); assay: Peripheral blood mononuclear cell (PBMC) IL-17 assay; type: cell-based; conditions: Homo sapiens, 120 h, inhibition of IL-17A production, 5 days, IL-17 ELISA, read-out: mean pIC50 (converted)
Experimental: The assay procedure and results are described below.
This assay is designed to measure the levels of IL-17A secreted from anti-CD3/anti-CD28 stimulated PBMCs with the aim of measuring RORγ mediated inhibition of IL-17A production.
The assay medium consists of 90% RPMI 1640 (Lonza), 10% heat inactivated fetal bovin serum (FBS, Lonza) and 100 U/mL penicillin/streptomycin solution.
Anti-CD3 antibody (BD Pharmingen) was diluted to 10 μg/ml in PBS (Lonza). 30 μL of 10 μg/ml anti-CD3 solution was added to the inner 60 wells, excluding any negative control wells, of a 96-well cell culture treated U-bottom plate (Greiner). Plates were incubated overnight (16-24 hours) at 37° C. and 5% CO2.
Peripheral blood mononuclear cells were separated from buffy coats (Sanquin) using Ficoll-Paque PREMIUM separation medium (GE Healthcare Life Sciences) according to manufacturer's protocol and re-suspended in assay medium at 37° C.
Test compounds were diluted, starting from a 10 mM dimethylsulfoxide (DMSO) stock solution, to serial dilutions in DMSO at 200× the final test concentration. Subsequently, these solutions were diluted in two dilution steps in assay medium to 10× the final test concentration. The DMSO concentration of the 10× test compound solution was 5%.
Anti-CD28 antibody (BD Pharmingen) was diluted to 20 μg/mL in PBS. The PBMCs were diluted to a concentration of 2.5×10^6 cells/mL in assay medium at 37° C.
For compound screening, the anti-CD3 coated plates were washed three times with PBS, the wells were subsequently aspirated using vacuum. To each screening well 80 μL of the PBMC suspension, 10 μL of the anti-CD28 solution and 10 μL of the 10× test compound solution was added, resulting in the final test concentration with 0.5% DMSO. All outer wells were filled with assay medium to prevent evaporation. Plates were incubated for 5 days at 37° C. and 5% CO2.
After incubation the plates were spun down at 1500 rpm for 4 minutes and the supernatant was collected. Subsequently, the IL-17A levels in the supernatants was determined using an IL-17 ELISA kit (human IL-17 DuoSet, R&D systems) according to manufacturer's protocol.
The half maximum inhibitory concentration (IC50) values for the test compounds were calculated from the IL-17A signal using GraphPad Prism software (GraphPad Software).

RORγ = target: T1, RORγ (Homo sapiens, UniProt P51449); assay: RORγ GAL4 reporter gene assay; conditions: mean pIC50, inhibition of RORγ (GAL4-RORγ-LBD) in 293FT cells, luciferase readout, overnight incubation
T1 sequence (P51449 269-508 limits assumed): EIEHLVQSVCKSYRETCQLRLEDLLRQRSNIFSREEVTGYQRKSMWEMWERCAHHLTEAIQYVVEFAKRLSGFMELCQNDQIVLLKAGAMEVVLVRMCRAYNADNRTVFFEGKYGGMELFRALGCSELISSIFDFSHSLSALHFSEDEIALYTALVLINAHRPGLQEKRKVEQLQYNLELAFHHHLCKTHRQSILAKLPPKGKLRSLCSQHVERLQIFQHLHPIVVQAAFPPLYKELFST

| IC50 (RORγ) [nM] | Compound | IC50 [1] [nM] |
| --- | --- | --- |
| ≤ 100 | O=C(Cc1ccc(S(=O)(=O)CC2CC2)cc1)Nc1ccc(C(O)(C(F)(F)F)C(F)(F)F)cn1 [Example 107, 2-(4-((cyclopropylmethyl)sulfonyl)phenyl)-N-(5-(1,1,1,3,3,3-hexafluoro-2-hydroxypropan-2-yl)pyridin-2-yl)acetamide] | ≤ 1000 |
| ≤ 10 | O=C(Cc1ccc(S(=O)(=O)CC2CC2)cc1)Nc1ccc(C(O)(C(F)(F)F)C(F)(F)F)cc1 [Example 37, 2-(4-((cyclopropylmethyl)sulfonyl)phenyl)-N-(4-(1,1,1,3,3,3-hexafluoro-2-hydroxypropan-2-yl)phenyl)acetamide] |  |
| ≤ 1000 | CCCC(O)(c1ccc(NC(=O)Cc2ccc(S(=O)(=O)CC)cc2)cc1)C(F)(F)F (stereo not drawn) [Example 63, 2-(4-(ethylsulfonyl)phenyl)-N-(4-(1,1,1-trifluoro-2-hydroxypentan-2-yl)phenyl)acetamide] |  |
| ≤ 1000 | CC(O)(c1ccc(NC(=O)Cc2ccc(S(=O)(=O)NC3CC3)cc2)cc1)C(F)(F)F (stereo not drawn) [Example 78, 2-(4-(N-cyclopropylsulfamoyl)phenyl)-N-(4-(1,1,1-trifluoro-2-hydroxypropan-2-yl)phenyl)acetamide] |  |
| ≤ 1000 | O=C(Cc1ccc(S(=O)(=O)NC2CC2)cc1)Nc1ccc(C(O)(C2CCCC2)C(F)(F)F)cc1 (stereo not drawn) [Example 90, N-(4-(1-cyclopentyl-2,2,2-trifluoro-1-hydroxyethyl)phenyl)-2-(4-(N-cyclopropylsulfamoyl)phenyl)acetamide] |  |
| ≤ 100 | CC(C)CCCC(O)(c1ccc(NC(=O)Cc2ccc(S(=O)(=O)CC3CC3)cc2)cc1)C(F)(F)F (stereo not drawn) [Example 108, 2-(4-((cyclopropylmethyl)sulfonyl)phenyl)-N-(4-(1,1,1-trifluoro-2-hydroxy-6-methylheptan-2-yl)phenyl)acetamide] |  |
| ≤ 1000 | CCS(=O)(=O)c1ccc(CC(=O)Nc2ccc(C(OCc3ccccc3)(C(F)(F)F)C(F)(F)F)cc2)cc1 [Example 50, N-(4-(2-(benzyloxy)-1,1,1,3,3,3-hexafluoropropan-2-yl)phenyl)-2-(4-(ethylsulfonyl)phenyl)acetamide] |  |
| ≤ 100 | Cc1cc(NC(=O)Cc2ccc(S(=O)(=O)NC3CC3)cc2)ccc1C(O)(C(F)(F)F)C(F)(F)F [Example 32, 2-(4-(N-cyclopropylsulfamoyl)phenyl)-N-(4-(1,1,1,3,3,3-hexafluoro-2-hydroxypropan-2-yl)-3-methylphenyl)acetamide] |  |

The next lines start with the molecule.

| Compound | IC50 (RORγ) [nM] | IC50 [1] [nM] |
| --- | --- | --- |
| O=C(Cc1ccc(S(=O)(=O)NC2CC2)cc1)Nc1ccc(C(O)(C(F)(F)F)C(F)(F)F)cc1F [Example 35, 2-(4-(N-cyclopropylsulfamoyl)phenyl)-N-(2-fluoro-4-(1,1,1,3,3,3-hexafluoro-2-hydroxypropan-2-yl)phenyl)acetamide] | ≤ 100 | ≤ 1000 |
| O=C(Cc1ccc(S(=O)(=O)NC2CC2)cc1)Nc1ccc(C(O)(C(F)(F)F)C(F)(F)F)c(F)c1 [Example 33, 2-(4-(N-cyclopropylsulfamoyl)phenyl)-N-(3-fluoro-4-(1,1,1,3,3,3-hexafluoro-2-hydroxypropan-2-yl)phenyl)acetamide] | ≤ 100 | ≤ 1000 |
| CCS(=O)(=O)c1ccc(CC(=O)Nc2ccc(C(O)(C(F)(F)F)C(F)(F)F)cc2)cc1 [Example 2, 2-(4-(ethylsulfonyl)phenyl)-N-(4-(1,1,1,3,3,3-hexafluoro-2-hydroxypropan-2-yl)phenyl)acetamide] |  | ≤ 1000 |
| Cc1cc(NC(=O)Cc2cccc(S(=O)(=O)NC3CC3)c2)ccc1C(O)(C(F)(F)F)C(F)(F)F [Example 36, 2-(3-(N-cyclopropylsulfamoyl)phenyl)-N-(4-(1,1,1,3,3,3-hexafluoro-2-hydroxypropan-2-yl)-3-methylphenyl)acetamide] | ≤ 1000 |  |
| COc1cc(C(O)(C(F)(F)F)C(F)(F)F)ccc1NC(=O)Cc1ccc(S(=O)(=O)CC2CC2)cc1 [Example 55, 2-(4-((cyclopropylmethyl)sulfonyl)phenyl)-N-(4-(1,1,1,3,3,3-hexafluoro-2-hydroxypropan-2-yl)-2-methoxyphenyl)acetamide] | ≤ 100 |  |
| O=C(Cc1ccc(S(=O)(=O)CC2CC2)cc1)Nc1ccc(C(OCCC2CC2)(C(F)(F)F)C(F)(F)F)cc1 [Example 58, N-(4-(2-(2-cyclopropylethoxy)-1,1,1,3,3,3-hexafluoropropan-2-yl)phenyl)-2-(4-((cyclopropylmethyl)sulfonyl)phenyl)acetamide] | ≤ 1000 |  |
| CC(C)CC(O)(c1ccc(NC(=O)Cc2ccc(S(=O)(=O)NC3CC3)cc2)cc1)C(F)(F)F (stereo not drawn) [Example 76, 2-(4-(N-cyclopropylsulfamoyl)phenyl)-N-(4-(1,1,1-trifluoro-2-hydroxy-4-methylpentan-2-yl)phenyl)acetamide] | ≤ 100 |  |
| CCOC(c1ccc(NC(=O)Cc2ccc(S(=O)(=O)CC)cc2)cc1)(C(F)(F)F)C(F)(F)F [Example 48, N-(4-(2-ethoxy-1,1,1,3,3,3-hexafluoropropan-2-yl)phenyl)-2-(4-(ethylsulfonyl)phenyl)acetamide] | ≤ 1000 |  |
| CCCOC(c1ccc(NC(=O)Cc2ccc(S(=O)(=O)CC3CC3)cc2)cc1)(C(F)(F)F)C(F)(F)F [Example 60, 2-(4-((cyclopropylmethyl)sulfonyl)phenyl)-N-(4-(1,1,1,3,3,3-hexafluoro-2-propoxypropan-2-yl)phenyl)acetamide] | ≤ 10 |  |
| O=C(Cc1ccc(S(=O)(=O)CC2CC2)cc1)Nc1ccc(C(O)(CC2CCCC2)C(F)(F)F)cc1 (stereo not drawn) [Example 68, N-(4-(3-cyclopentyl-1,1,1-trifluoro-2-hydroxypropan-2-yl)phenyl)-2-(4-((cyclopropylmethyl)sulfonyl)phenyl)acetamide] | ≤ 100 |  |
